Reference: patent US20100041089A1, “IMPROVED METHOD FOR DETECTING CHEMICAL […]” (priority 2006, published 2010)

Tested on: yeast genes (expressed mRNA)
Assay: DNA chip measurement of expressed mRNA of yeast genes after culture with a toxic chemical substance
Type: cell-based, Saccharomyces cerevisiae S288C
Procedure: Yeast (Saccharomyces cerevisiae S288C (a SUC2mal mel gap2 CUP1)) were cultured at 25° C. on YPD medium (yeast extract 1%, polypeptone 2%, glucose 2%). One of toxic chemical substances was added to the cell at logarithmic growth phase, and the cell was further cultured for two hours. Cell was cultured without any chemical substance in the same condition, and was used as a control. Concentrations of the chemical substances were defined to inhibit the growth of the yeast but not lead to death.
After the completion of cultivation, the culture was centrifuged to collect the cells. To the cells, sodium acetate buffer (50 mM sodium acetate, 10 mM EDTA, 1% SDS) was added, and the mixture was shaken at 65° C. for five minutes, followed by returning to room temperature, and obtaining the supernatant, which procedure was repeated two times. To the supernatant, ½ amount of a solution of phenol/chloroform (1:1) was added, and the mixture was centrifuged to give a supernatant, an equal amount of chloroform was added, and the mixture was centrifuged to give a supernatant. To the supernatant, an equal amount of isopropanol containing 0.3 M sodium acetate was added, and the mixture was allowed to stand at room temperature for 30 minutes, after which the mixture was centrifuged to give sediment of the whole RNAs. Seventy % ethanol was added to the sediment, and the mixture was again centrifuged to give sediment, which was then dried and dissolved in water. mRNA was isolated from the whole RNAs as followings. In view of the fact that a poly A chain is attached to the 3′ terminus of mRNA, a polynucleotide having a poly T structure which was immobilized on the surface of latex beads was used to trap the mRNA, and then the mRNA was washed and eluted with spine column (Oligotex-dT30<Super>mRNA Purification Kit, Takara). Reverse transcription of the mRNA was conducted with a reverse transcriptase (Super Script II Reverse Transcriptase; catalogue No. 18064-014, GibcoBRL) using fluorescence-labeled nucleotides to give cDNAs that were introduced with Cy3-dUTP or Cy5-dUTP during the reverse transcription.
The labeled cDNAs were dissolved in TE buffer (10 mM Tris-HCl/1 mM EDTA, pH 8.0), and the solution was dropped on the DNA chip containing the whole genes of yeast (DNA Chip Research Inc. Japan) so that the cDNAs were hybridized on the DNA chip at 65° C. for over 12 hours. The fluoresces intensity of the DNA chip was read with a scanner, and the ratio relative to the fluorescence intensity resulting from the absence of chemical substance was estimated as the following, which is shown in Tables 1 to 9.
In the Tables, “Intensity” indicated in the rightmost column is a value of the level of expressed mRNA of each gene in control cells as divided by the average level of the expressions of the whole genes. A gene of which mRNA level is lower in control, and is higher in cases of addition of chemical substance, is especially useful in the detection of toxic substances.
Here, when a ratio of an amount of mRNA expressed in the presence of the chemical substance to an amount of mRNA expressed in the absence of the chemical substance is two or more, then it is considered significant.

CCCCC[C@H](O)CC(=O)CCc1ccc(O)c(OC)c1 [(13), Gingerol]
level of expressed mRNA in the presence of chemical substance / level in the absence of chemical substance (yeast gene YNL194C, cultured two hours with the chemical substance): 1.5 | level of expressed mRNA in the presence of chemical substance / level in the absence of chemical substance (yeast gene YNL200C, cultured two hours with the chemical substance): 1.1 | The level of expressed mRNA in the presence of chemical substance/The level of expressed mRNA in the absence of chemical substance (yeast gene YNL208W, cultured two hours with substance): 1.7 | The level of expressed mRNA in the presence of chemical substance/The level of expressed mRNA in the absence of chemical substance (yeast gene YNL234W, cultured two hours with substance): 2.5 | The level of expressed mRNA in the presence of chemical substance/The level of expressed mRNA in the absence of chemical substance (yeast gene YNL241C, cultured for two hours with substance): 4.9 | level of expressed mRNA in the presence of chemical substance / level in the absence of chemical substance (yeast gene YNL253W, cultured two hours with the chemical substance): 1.1 | level of expressed mRNA in the presence of chemical substance / level in the absence of chemical substance (yeast gene YNL276C, cultured two hours with the chemical substance): 1.5 | level of expressed mRNA in the presence of chemical substance / level in the absence of chemical substance (yeast gene YNR051C, cultured two hours with the chemical substance): 2.1 | level of expressed mRNA in the presence of chemical substance / level in the absence of chemical substance (yeast gene YOL026C, cultured two hours with the chemical substance): 1.2 | The level of expressed mRNA in the presence of chemical substance/The level of expressed mRNA in the absence of chemical substance (yeast gene YOL030W, cultured two hours with the chemical substance): 1.7 | The level of expressed mRNA in the presence of chemical substance/The level of expressed mRNA in the absence of chemical substance (yeast gene YOL036W, cultured two hours with substance): 2.5 | The level of expressed mRNA in the presence of chemical substance/The level of expressed mRNA in the absence of chemical substance (yeast gene YOL039W): 0.1 | The level of expressed mRNA in the presence of chemical substance/The level of expressed mRNA in the absence of chemical substance (yeast gene YOL084W, cultured two hours with substance): 6.4 | The level of expressed mRNA in the presence of chemical substance/The level of expressed mRNA in the absence of chemical substance (yeast gene YOL120C): 0.1 | level of expressed mRNA in the presence of chemical substance / level in the absence of chemical substance (yeast gene YOR022C, cultured two hours with the chemical substance): 1.7 | level of expressed mRNA in the presence of chemical substance / level in the absence of chemical substance (yeast gene YOR087W, cultured two hours with the chemical substance): 1.2 | level of expressed mRNA in the presence of chemical substance / level in the absence of chemical substance (yeast gene YOR138C, cultured two hours with the chemical substance): 1.8 | The level of expressed mRNA in the presence of chemical substance/The level of expressed mRNA in the absence of chemical substance (yeast gene YOR152C, cultured two hours with substance): 7.4 | The level of expressed mRNA in the presence of chemical substance/The level of expressed mRNA in the absence of chemical substance (yeast gene YOR153W): 11.8 | The level of expressed mRNA in the presence of chemical substance/The level of expressed mRNA in the absence of chemical substance (yeast gene YOR173W, cultured two hours with substance): 3.8 | The level of expressed mRNA in the presence of chemical substance/The level of expressed mRNA in the absence of chemical substance (yeast gene YOR187W, mitochondria-located protein gene, cultured two hours with substance): 0.7 | level of expressed mRNA in the presence of chemical substance / level in the absence of chemical substance (yeast gene YOR253W, cultured two hours with the chemical substance): 0.5 | level of expressed mRNA in the presence of chemical substance / level in the absence of chemical substance (yeast gene YOR267C, cultured two hours with the chemical substance): 1.4 | level of expressed mRNA in the presence of chemical substance / level in the absence of chemical substance (yeast gene YOR325W, cultured two hours with the chemical substance): 0.6 | The level of expressed mRNA in the presence of chemical substance/The level of expressed mRNA in the absence of chemical substance (yeast gene YOR382W, cultured two hours with substance): 1.7 | The level of expressed mRNA in the presence of chemical substance/The level of expressed mRNA in the absence of chemical substance (yeast gene YOR385W, cultured two hours with the substance): 2.8 | level of expressed mRNA in the presence of chemical substance / level in the absence of chemical substance (yeast gene YPL005W, cultured two hours with the chemical substance): 1.2 | The level of expressed mRNA in the presence of chemical substance/The level of expressed mRNA in the absence of chemical substance (yeast gene YPL087W, cultured two hours with substance): 4.4 | level of expressed mRNA in the presence of chemical substance / level in the absence of chemical substance (yeast gene YPL150W, cultured two hours with the chemical substance): 2.1 | level of expressed mRNA in the presence of chemical substance / level in the absence of chemical substance (yeast gene YPL152W, cultured two hours with the chemical substance): 1.4 | level of expressed mRNA in the presence of chemical substance / level in the absence of chemical substance (yeast gene YPL168W, cultured two hours with the chemical substance): 1.0 | level of expressed mRNA in the presence of chemical substance / level in the absence of chemical substance (yeast gene YPL180W, cultured two hours with the chemical substance): 1.5 | level of expressed mRNA in the presence of chemical substance / level in the absence of chemical substance (yeast gene YPL188W, cultured two hours with the chemical substance): 0.9 | level of expressed mRNA in the presence of chemical substance / level in the absence of chemical substance (yeast gene YPL221W, cultured two hours with the chemical substance): 1.0 | The level of expressed mRNA in the presence of chemical substance/The level of expressed mRNA in the absence of chemical substance (yeast gene YPL222W, cultured two hours with substance): 3.0 | level of expressed mRNA in the presence of chemical substance / level in the absence of chemical substance (yeast gene YPL225W, cultured two hours with the chemical substance): 0.8 | The level of expressed mRNA in the presence of chemical substance/The level of expressed mRNA in the absence of chemical substance (yeast gene YPR037C, mitochondria-located protein gene, cultured two hours with substance): 1.0 | level of expressed mRNA in the presence of chemical substance / level in the absence of chemical substance (yeast gene YPR049C, cultured two hours with the chemical substance): 1.6 | The level of expressed mRNA in the presence of chemical substance/The level of expressed mRNA in the absence of chemical substance (yeast gene YPR134W, mitochondria-located protein gene, cultured two hours with substance): 1.1 | level of expressed mRNA in the presence of chemical substance / level in the absence of chemical substance (yeast gene YPR146C, cultured two hours with the chemical substance): 1.3 | level of expressed mRNA in the presence of chemical substance / level in the absence of chemical substance (yeast gene YPR148C, cultured two hours with the chemical substance): 1.2 | level of expressed mRNA in the presence of chemical substance / level in the absence of chemical substance (yeast gene YPR172W, cultured two hours with the chemical substance): 1.3
